The structures appear in SMILES notation.

One test concerns Erk. Put plainly: Western blot of Erk phosphorylation in nerve cells. The format is cell-based, human. Conditions: 1 μM, nerve cells having SOD1 mutation. The procedure:
(§1) It is known that phosphorylation of Erk is promoted in nerve cells having mutation SOD1. To examine the mechanism of these candidate medicaments, phosphorylation of Erk was examined by Western blot method. The Western blot method included dissolving cells in RIPA buffer containing 0.1% SDS, 150 mM NaCl, 1% NP-40, 0.5% deoxycholate, 50 mM Tris-HCl (pH 8.0), protease inhibitor (Roche) and phosphatase inhibitor (Roche), centrifugation, measurement of protein concentration, addition of 20 μg amount of protein to each lane, and electrophoresis in 10-20% polyacrylamide gel. After blotting to Immobilon-P membrane (Millipore), the cells were stained with antibodies against Erk, phosphorylated Erk, c-Abl and phosphorylated c-Abl and detected.
Background: In western blotting, separated proteins are transferred to a membrane and probed.

Test [1] relates to motoneuron cells derived from iPS cells of ALS patients having C9orf72 mutation. Description: survival of motoneuron cells induced from ALS patient iPS cells (C9orf72 mutation). The format is cell-based, human. The following applies: added on day 7, survived motoneuron cells counted on day 14.
In test [2] the test system is motoneuron cells derived from iPS cells of sporadic ALS patients. Put plainly: survival of motoneuron cells induced from sporadic ALS patient iPS cells. Conditions: for cell survival rate improvement, sporadic / cell survival rate improving effect, significance, sporadic: added on day 7, survived motoneuron cells counted on day 14. It counts as cell-based, human.
For the next test, the system named is c-abl. Put plainly: Western blot of c-abl phosphorylation in nerve cells. It counts as cell-based, human. The following applies: 1 μM, nerve cells having SOD1 mutation. How it is done:
as §1

Test [3] deals with nerve cell derived from iPS cell having SOD1-L144FVX mutation. Put plainly: neurite length of nerve cells derived from iPS cells. The format is cell-based, human. Conditions: 1 μM, cultured for 48 hr.
Experimental: In detail, small clumps (diameter 40-100 μm) of iPS cell colonies were subjected to a filter treatment with Cell Strainer (BD Falcon), and cultured for 10 days in N2B27 medium [DMEM/F12, Neurobasal, N2 supplement, B27 supplement, L-Gln] added with 100 ng/ml human recombinant Noggin (R&D systems) and 1 μM SB431542 (Sigma) in a culture dish coated with poly-L-lysine (Sigma)/Laminin (BD Falcon) (PLL/LM). Then, the colonies were dissociated into small clumps with 200 U/ml collagenase added with CaCl2, and transferred into a culture dish coated with PLL/ECL (Millipore). After 7 days of culture, the cells were dissociated with Accutase (Innovative Cell Technologies), and cultured in a culture dish coated with PLL/ECL for 7 days (24 d). Finally, the cells dissociated with Accutase and selected by a 40 μm cell strainer (BD Falcon) were counted, cultured for 31 days (56d) in N2B27 medium added with 10 ng/ml BDNF, GDNF, and NT-3 (R&D systems) in a culture dish coated with PLL/LM/Fibronectin (Millipore) to give nerve cells from the iPS cells.
The test system of test [4] is motoneuron cells derived from iPS cells having SOD1-L144FVX mutation. Put plainly: survival of motoneuron cells induced from ALS patient iPS cells (SOD1 mutation). The following applies: for cell survival rate improvement, SOD1 mutation / cell survival rate improving effect, significance, SOD1 mutation: added on day 7, survived motoneuron cells counted on day 14.
For test [5] the test system is unchanged. The following applies: 168 h.

With `COc1cc2nccc(Oc3ccc(NC(=O)Nc4cc(C)on4)c(Cl)c3)c2cc1OC` [Tivozanib], the “phosphorylation of Erk” value in the test with Erk is “decreased”. Besides, in test [1], the “cell survival rate improvement, C9orf72 mutation” value is listed as “x (cell survival rate improvement less than 20%)” and the “cell survival rate improving effect, significance, C9orf72 mutation” value is “○ (significant difference (p < 0.05))”. In test [2], the “efficacy for sporadic ALS (conclusion from Tables 5 and 6)” value is recorded as “higher efficacy”; the “cell survival rate improvement, sporadic” value was “○ (cell survival rate improvement not less than 20%)”; the “cell survival rate improving effect, significance, sporadic” value is “○ (significant difference (p < 0.05))”. Besides, the phosphorylation of c-abl result with c-abl is listed as “decreased”. Moreover, the length of neuritis entry in test [3] was “elongation of neuritis”. In test [4], the “efficacy for ALS having SOD1 mutation (conclusion from Tables 5 and 6)” value was “higher efficacy”; the “cell survival rate improvement, SOD1 mutation” value was “○ (cell survival rate improvement not less than 20%)”; the “cell survival rate improving effect, significance, SOD1 mutation” value is “○ (significant difference (p < 0.05))”. Besides, the “dose correlation in the protection effect on motoneuron cell having SOD1 mutation” value in test [4] (FIG. 2, FIG. 6) is “increase in the effect in a dose-dependent manner”.

In the case of `CN(C)CCCn1cc(C2=C(c3c[nH]c4ccccc34)C(=O)NC2=O)c2ccccc21` [Bisindolyl-maleimide I, Bisindolylmaleimide I], the “MN index (motoneuron cell survival number ratio as compared to negative control)” value in test [5] is reported as 7.96.

For the compound `CCN(CC)CCNC(=O)c1c(C)[nH]c(/C=C2\C(=O)Nc3ccc(F)cc32)c1C` [Sunitinib], in test [1], the “cell survival rate improvement, C9orf72 mutation” value is given as “○ (cell survival rate improvement not less than 20%)” and the “cell survival rate improving effect, significance, C9orf72 mutation” value was “○ (significant difference (p < 0.05))”. For the same compound, in test [2], the “cell survival rate improvement, sporadic” value is “○ (cell survival rate improvement not less than 20%)” and the “cell survival rate improving effect, significance, sporadic” value is recorded as “○ (significant difference (p < 0.05))”. Besides, in test [4], the “cell survival rate improvement, SOD1 mutation” value is listed as “○ (cell survival rate improvement not less than 20%)” and the “cell survival rate improving effect, significance, SOD1 mutation” value is reported as “○ (significant difference (p < 0.05))”.

For the origin of these results see patent US20180000771A1, “AGENT FOR PREVENTING AND/OR TREATING AMYOTROPHIC LATERAL SCLEROSIS” (KYOTO UNIVERSITY, priority 2015, published 2018).
